One may read the EC50 as the concentration that produces a half-maximal response. As a reminder, the Ki is a dissociation constant, usually derived from enzyme kinetics or from competition with a known ligand. Higher therefore signals weaker binding. What is called Emax is the maximal effect, on the per cent scale that the assay sets. What is called Kd is the free concentration of one partner at which half of the binding sites on the other are occupied at equilibrium, for simple one-to-one binding. Low readings indicate tighter binding, high ones weaker binding. Usually IC50 stands for the concentration that gives 50% inhibition.

Structures are written as SMILES. Non-standard residues stand in square brackets, D forms with d. Residues, ends and D or L forms follow the SMILES beside them. ξ: configuration not given here. ξP = O=C(O)C1CCCN1

The text below walks through data of ChEMBL document CHEMBL4406853 (Eur J Med Chem, 2019).

In test [1] the target is T1, Kappa-type opioid receptor (Cavia porcellus, UniProt P41144). In words: Agonist activity at kappa opioid receptor in guinea pig brain membranes by [35S]-GTPgammaS binding assay. Format: functional, cell membranes.
T1 sequence (P41144 whole entry): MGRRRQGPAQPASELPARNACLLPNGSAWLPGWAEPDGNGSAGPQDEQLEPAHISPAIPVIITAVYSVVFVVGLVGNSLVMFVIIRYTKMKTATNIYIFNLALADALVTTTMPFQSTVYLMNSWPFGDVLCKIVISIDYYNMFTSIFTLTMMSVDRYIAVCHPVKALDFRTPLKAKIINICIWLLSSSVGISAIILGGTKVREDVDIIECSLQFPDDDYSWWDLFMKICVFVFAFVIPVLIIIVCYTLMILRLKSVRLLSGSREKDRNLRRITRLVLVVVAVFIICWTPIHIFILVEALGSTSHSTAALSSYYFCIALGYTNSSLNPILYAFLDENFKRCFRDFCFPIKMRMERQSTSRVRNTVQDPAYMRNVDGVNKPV
For test [2], the target named is T1, Kappa-type opioid receptor. Put plainly: Inhibition of kappa opioid receptor in guinea pig brain membranes. The class given is cell membranes.
The target of test [3] is T2, Mu-type opioid receptor (Cavia porcellus, UniProt P97266). Put plainly: Agonist activity at mu opioid receptor in guinea pig brain membranes by [35S]-GTPgammaS binding assay. The class given is functional, cell membranes.
T2 sequence (P97266 whole entry): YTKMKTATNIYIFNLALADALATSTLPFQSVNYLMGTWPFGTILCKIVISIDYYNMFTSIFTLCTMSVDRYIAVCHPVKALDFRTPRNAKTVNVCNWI
Test [4] has as its target T2, Mu-type opioid receptor. In words: Inhibition of mu opioid receptor in guinea pig brain membranes. The class given is cell membranes.
Test [5] can be described thus: Agonist activity at delta opioid receptor in guinea pig brain membranes by [35S]-GTPgammaS binding assay. The class given is cell membranes, Cavia porcellus. (GTPγS is a poorly hydrolysed GTP analogue; its binding reports G protein activation.)
Test [6] in a line: Inhibition of delta opioid receptor in guinea pig brain membranes. The class given is cell membranes, Cavia porcellus.
In test [7] the target is Mu-type opioid receptor (Cavia porcellus) (UniProt P97266). In words: Agonist activity at mu opioid receptor in guinea pig brain membranes by [35S]-GTPgammaS binding assay relative to control. The class given is functional, cell membranes.
Sequence of Mu-type opioid receptor (Cavia porcellus) (P97266 whole entry): as above
The species entered for another test is Cavia porcellus. In words: Agonist activity at delta opioid receptor in guinea pig brain membranes by [35S]-GTPgammaS binding assay relative to control. Format: cell membranes.
The target in test [8] is Kappa-type opioid receptor (Cavia porcellus) (UniProt P41144). In words: Agonist activity at kappa opioid receptor in guinea pig brain membranes by [35S]-GTPgammaS binding assay relative to control. Format: functional, cell membranes.
Sequence of Kappa-type opioid receptor (Cavia porcellus) (P41144 whole entry): as the sequence (P41144 whole entry) above
In test [9] the target is T3, Kappa-type opioid receptor (Homo sapiens, UniProt P41145). In words: Inhibition of kappa-opioid receptor (unknown origin) by [35S]-GTPgammaS binding assay. The class given is functional.
T3 sequence (P41145 whole entry): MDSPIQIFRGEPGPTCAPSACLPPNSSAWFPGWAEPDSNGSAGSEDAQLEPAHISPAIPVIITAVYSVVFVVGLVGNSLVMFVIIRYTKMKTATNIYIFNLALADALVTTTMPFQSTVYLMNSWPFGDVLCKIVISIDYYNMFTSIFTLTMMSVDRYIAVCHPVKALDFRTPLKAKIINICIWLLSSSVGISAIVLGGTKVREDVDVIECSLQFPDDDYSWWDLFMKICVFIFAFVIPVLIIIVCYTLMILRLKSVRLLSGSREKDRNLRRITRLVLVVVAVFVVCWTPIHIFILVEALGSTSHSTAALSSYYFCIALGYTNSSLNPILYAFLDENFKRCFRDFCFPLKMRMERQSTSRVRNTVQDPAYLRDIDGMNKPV
The target in test [10] is T4, Mu-type opioid receptor (Homo sapiens, UniProt P35372). Put plainly: Inhibition of mu-opioid receptor (unknown origin) by [35S]-GTPgammaS binding assay. Format: functional.
T4 sequence (P35372 whole entry): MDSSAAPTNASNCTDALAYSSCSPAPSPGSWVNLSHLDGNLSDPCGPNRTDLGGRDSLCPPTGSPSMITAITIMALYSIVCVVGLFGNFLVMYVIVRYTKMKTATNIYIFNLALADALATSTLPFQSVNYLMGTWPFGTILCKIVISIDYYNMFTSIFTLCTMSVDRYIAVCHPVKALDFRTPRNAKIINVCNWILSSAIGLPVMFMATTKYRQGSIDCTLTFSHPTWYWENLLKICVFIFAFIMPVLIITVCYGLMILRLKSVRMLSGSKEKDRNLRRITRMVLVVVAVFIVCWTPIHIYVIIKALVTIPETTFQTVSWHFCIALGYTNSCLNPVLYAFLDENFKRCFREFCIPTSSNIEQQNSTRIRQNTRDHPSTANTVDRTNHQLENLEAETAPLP
Test [11] deals with Mitogen-activated protein kinase 3 (Homo sapiens, UniProt P27361). Put plainly: Inhibition of ERK1 phosphorylation (unknown origin).
Sequence of Mitogen-activated protein kinase 3 (P27361 whole entry): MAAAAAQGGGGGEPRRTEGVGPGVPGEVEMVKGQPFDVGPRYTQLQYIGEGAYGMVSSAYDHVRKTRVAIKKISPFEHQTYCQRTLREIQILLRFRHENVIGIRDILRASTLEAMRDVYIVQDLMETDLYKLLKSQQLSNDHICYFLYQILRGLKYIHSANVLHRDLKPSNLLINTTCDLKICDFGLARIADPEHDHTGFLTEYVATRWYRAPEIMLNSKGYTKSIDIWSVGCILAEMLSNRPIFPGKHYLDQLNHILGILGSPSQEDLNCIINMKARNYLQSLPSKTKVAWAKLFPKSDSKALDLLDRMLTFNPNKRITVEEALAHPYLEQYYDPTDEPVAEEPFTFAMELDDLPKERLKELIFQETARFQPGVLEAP
A further test deals with MAP kinase p38 (Homo sapiens, UniProt O15264+Q15759+Q16539+P53778). Put plainly: Inhibition of p38 phosphorylation (unknown origin). The class given is protein assay.
For test [12], the target named is Mitogen-activated protein kinase 1 (Homo sapiens, UniProt P28482). In words: Inhibition of ERK2 phosphorylation (unknown origin).
Sequence of Mitogen-activated protein kinase 1 (P28482 whole entry): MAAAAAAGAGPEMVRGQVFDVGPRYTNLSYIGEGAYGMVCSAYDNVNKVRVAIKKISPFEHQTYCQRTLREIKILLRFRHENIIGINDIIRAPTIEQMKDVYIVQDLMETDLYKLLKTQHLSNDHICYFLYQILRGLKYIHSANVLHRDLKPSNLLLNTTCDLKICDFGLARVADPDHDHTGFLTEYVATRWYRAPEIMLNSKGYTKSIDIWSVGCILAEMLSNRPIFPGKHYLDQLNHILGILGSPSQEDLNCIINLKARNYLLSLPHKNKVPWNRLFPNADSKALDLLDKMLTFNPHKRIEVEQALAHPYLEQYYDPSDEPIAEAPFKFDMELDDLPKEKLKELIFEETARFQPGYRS
Test [13] concerns the target T3, Kappa-type opioid receptor. Put plainly: Binding affinity to kappa opioid receptor (unknown origin).
The target of test [14] is T3, Kappa-type opioid receptor. In words: Inhibition of kappa opioid receptor (unknown origin).
In test [15] the target is T3, Kappa-type opioid receptor. Put plainly: Inhibition of kappa opioid receptor (unknown origin) relative to control.
Test [16] concerns the target T3, Kappa-type opioid receptor. In words: Agonist activity at kappa opioid receptor (unknown origin) assessed as reduction in beta arrestin recruitment relative to control. Format: functional. In general terms: Recruitment of arrestin is a read-out of receptor activation apart from second messengers.
Test [17] concerns the target T3, Kappa-type opioid receptor. In words: Partial agonist activity at kappa opioid receptor (unknown origin) expressed in CHO cells by [35S]-GTPgammaS binding assay relative to control. Format: functional, cell-based.
Test [18] is filed under the species Homo sapiens. Put plainly: Selectivity ratio of Ki for mu opioid receptor (unknown origin) expressed in CHO cells to Ki for delta opioid receptor (unknown origin) expressed in CHO cells. The class given is cell-based.
For test [19], the target named is T3, Kappa-type opioid receptor. In words: Inhibition of kappa opioid receptor (unknown origin) expressed in CHO cells by [35S]-GTPgammaS binding assay. Format: functional, cell-based.
For test [20], the target named is T3, Kappa-type opioid receptor. Put plainly: Agonist activity at kappa opioid receptor (unknown origin) assessed as reduction in beta arrestin recruitment. Format: functional.
Test [21] deals with T3, Kappa-type opioid receptor. Put plainly: Partial agonist activity at kappa opioid receptor (unknown origin) expressed in CHO cells by [35S]-GTPgammaS binding assay. The class given is functional, cell-based.
In test [22] the target is T4, Mu-type opioid receptor. Put plainly: Partial agonist activity at mu opioid receptor (unknown origin) expressed in CHO cells by [35S]-GTPgammaS binding assay. Format: functional, cell-based.
Test [23] has as its target T3, Kappa-type opioid receptor. Put plainly: Inhibition of kappa opioid receptor (unknown origin) assessed as effect on ERK1 phosphorylation relative to control.
For test [24], the target named is T3, Kappa-type opioid receptor. In words: Inhibition of kappa opioid receptor (unknown origin) by [35S]-GTPgammaS binding assay. The class given is functional.
Test [25] concerns the target T3, Kappa-type opioid receptor. In words: Inhibition of kappa opioid receptor (unknown origin) assessed as increase in beta arrestin 2 recruitment.
Test [26] deals with T3, Kappa-type opioid receptor. In words: Inhibition of kappa opioid receptor (unknown origin) assessed as effect on ERK1 phosphorylation.
For test [27], the target named is T3, Kappa-type opioid receptor. In words: Inhibition of kappa opioid receptor (unknown origin) assessed as effect on ERK2 phosphorylation.
The target of test [28] is T3, Kappa-type opioid receptor. In words: Inhibition of kappa opioid receptor (unknown origin) assessed as increase in beta arrestin 2 recruitment relative to control.
Test [29] has as its target T3, Kappa-type opioid receptor. Put plainly: Inhibition of kappa opioid receptor (unknown origin) assessed as effect on ERK2 phosphorylation relative to control.
In test [30] the target is T5, Delta-type opioid receptor (Homo sapiens, UniProt P41143). In words: Inhibition of full length delta opioid receptor (unknown origin) assessed as inhibition of forskolin-stimulated intracellular cAMP accumulation. Format: functional, cell-based. (In general: Cyclic AMP is a second messenger, typically raised through Gs and lowered through Gi signalling.)
T5 sequence (P41143 whole entry): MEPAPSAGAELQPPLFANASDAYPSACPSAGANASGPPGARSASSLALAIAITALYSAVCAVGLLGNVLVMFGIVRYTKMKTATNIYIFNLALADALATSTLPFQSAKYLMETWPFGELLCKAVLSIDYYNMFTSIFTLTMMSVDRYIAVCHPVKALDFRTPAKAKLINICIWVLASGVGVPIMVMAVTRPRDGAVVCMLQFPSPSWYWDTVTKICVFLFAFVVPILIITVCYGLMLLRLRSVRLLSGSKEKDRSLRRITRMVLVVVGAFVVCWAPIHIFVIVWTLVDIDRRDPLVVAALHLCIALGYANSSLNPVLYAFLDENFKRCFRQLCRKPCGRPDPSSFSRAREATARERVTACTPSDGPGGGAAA
Test [31] concerns the target T5, Delta-type opioid receptor. Put plainly: Inhibition of delta opioid receptor (unknown origin) by MVD assay.
The target in test [32] is T5, Delta-type opioid receptor. In words: Inhibition of full length delta opioid receptor (unknown origin) assessed as increase in beta arrestin 1 recruitment.
The target in test [33] is T4, Mu-type opioid receptor. In words: Inhibition of mu opioid receptor (unknown origin).
The species named for test [34] is Homo sapiens. Put plainly: Selectivity ratio of IC50 for mu opioid receptor (unknown origin) to IC50 for delta opioid receptor (unknown origin) by MVD assay.
The species named for test [35] is Homo sapiens. Put plainly: Selectivity ratio of IC50 for mu opioid receptor (unknown origin) to IC50 for delta opioid receptor (unknown origin) by radioligand binding assay.
Test [36] deals with T5, Delta-type opioid receptor. Put plainly: Inhibition of delta opioid receptor (unknown origin) by radioligand binding assay.
The target of test [37] is T5, Delta-type opioid receptor. Put plainly: Inhibition of full length delta opioid receptor (unknown origin) assessed as increase in beta arrestin 2 recruitment.
In test [38] the target is T5, Delta-type opioid receptor. In words: Inhibition of delta opioid receptor (unknown origin) expressed in human […] cells assessed as increase in beta arrestin recruitment. The class given is functional, cell-based.
In test [39] the target is T4, Mu-type opioid receptor. Put plainly: Inhibition of mu opioid receptor (unknown origin) assessed as increase in beta arrestin recruitment relative to control. The class given is functional.
Test [40] concerns the target T4, Mu-type opioid receptor. Put plainly: Inhibition of mu opioid receptor (unknown origin) expressed in human […] cells assessed as increase in beta arrestin recruitment. Format: functional, cell-based.
Test [41] has as its target T4, Mu-type opioid receptor. In words: Inhibition of mu opioid receptor (unknown origin) expressed in human […] cells by [35S]-GTPgammaS binding assay. The class given is functional, cell-based.
The target of test [42] is T5, Delta-type opioid receptor. Put plainly: Inhibition of delta opioid receptor (unknown origin) expressed in human […] cells by [35S]-GTPgammaS binding assay relative to control. The class given is functional, cell-based.
In test [43] the target is T4, Mu-type opioid receptor. In words: Inhibition of mu opioid receptor (unknown origin) expressed in human […] cells by [35S]-GTPgammaS binding assay relative to control. The class given is functional, cell-based.
Test [44] deals with T5, Delta-type opioid receptor. In words: Inhibition of delta opioid receptor (unknown origin) expressed in human […] cells by [35S]-GTPgammaS binding assay. The class given is functional, cell-based.
Test [45] has as its target T5, Delta-type opioid receptor. In words: Inhibition of delta opioid receptor (unknown origin) assessed as increase in beta arrestin recruitment relative to control. The class given is functional.

As for `CC[C@@H]1CN2CC[C@@]3(O)C(=Nc4cccc(OC)c43)[C@@H]2C[C@@H]1/C(=C\OC)C(=O)OC`, the EC50 (in test [1]; on Mu-type opioid receptor [3]; in test [5]) was 0.053 µM in each case. Moreover, the inhibitory constant (Ki) in test [2] is above 1 µM; on Mu-type opioid receptor [4] it was 0.0072 µM; in [6], 0.06 µM.
As to `CC[C@@H]1CN2CCc3c([nH]c4cccc(OC)c34)[C@@H]2C[C@@H]1/C(=C\OC)C(=O)OC`, the EC50 (in test [1]; on Mu-type opioid receptor [3]; in [5]) was 0.23 µM throughout. Moreover, the Emax (in test [7]; in the test filed under Cavia porcellus; in test [8]) was 65% each time. Moreover, the values for the Ki (in test [2]; at Mu-type opioid receptor [4]; in [6]) were 0.123 µM, 0.013 µM and 0.155 µM, respectively.
As for `CCC1(C)CC(CCNCc2ccccc2O)(c2ccccc2OC)CCO1` (stereo unspecified), the EC50 in [9] was 3.4 µM; on Mu-type opioid receptor [10], 1.1 µM.
As for `CN(C(=O)/C=C/c1ccoc1)[C@@H]1CC[C@@]2(O)[C@H]3Cc4ccc(O)c5c4[C@@]2(CCN3CC2CC2)[C@H]1O5` [NALFURAFINE], the EC50 was 0.00055 µM in test [11], 0.0052 µM at MAP kinase p38 and 0.00055 µM in test [12].
As to `COC(=O)[C@@H]1C[C@H](OC(=O)Cl)C(=O)[C@H]2[C@@]1(C)CC[C@H]1C(=O)O[C@H](c3ccoc3)C[C@]21C`, the Kd in test [13] is 0.0021 µM. In addition, the EC50 in [14] was 0.00019 µM. Moreover, the Emax in test [15] was 85%.
On to `CCC1CC2CC3c4[nH]c5ccc(O)cc5c4CCN(C2)C13` (stereo unspecified), for which the figures for the Emax in test [16] and in [17] were 13% and 72%, respectively. Moreover, the Ratio Ki in the test listed under Homo sapiens [18] worked out at 2. In test [19], this molecule displayed a Ki of 0.72 µM. The EC50 stood at 0.11 µM in test [20], 8.75 µM in [21] and 16 µM on Mu-type opioid receptor [22].
As to `Ic1ccc(CSc2nnc(-c3ccccn3)n2Cc2ccccn2)cc1`, the Emax in [23] worked out at 109%; in test [28], 101%; in test [29], 109%. The EC50 was 0.0755 µM in [24], 10.1 µM in [25], 0.107 µM in test [26] and 0.107 µM in test [27].
On to `CC(C)C[C@H](NC(=O)C1CCCN1C(=O)[C@@H](N)Cc1ccc(O)cc1)C(=O)N[C@@H](CC(=O)O)C(=O)N[C@@H](CC(C)C)C(=O)N[C@@H](Cc1ccccc1)C(=O)O` (stereo partly specified) (H-Y[ξP]LDLF-OH), for which the IC50 in [30] is 1.58 µM; in test [31], 24.4 µM; at Mu-type opioid receptor [33], above 2000 µM; in [36], 0.9 µM. Further, the EC50 in test [32] and in test [37] was 7.94 µM throughout. Also, the Ratio IC50 in the test listed under Homo sapiens [34] and in the test filed under Homo sapiens [35] was 500 throughout.
Regarding `CC(C)C[C@H](NC(=O)[C@H](CC(=O)O)NC(=O)[C@H](CC(C)C)NC(=O)C1CCCN1C(=O)[C@@H](N)Cc1ccc(O)cc1)C(=O)O` (stereo partly specified) (H-Y[ξP]LDL-OH), the IC50 in test [30] was 6.31 µM; in test [31], 51 µM; at Mu-type opioid receptor [33], 1090 µM; in test [36], 2 µM. Moreover, the concentration for a half-maximal effect (EC50) in test [32] and in test [37] was 79.4 µM in each case. The Ratio IC50 in the test filed under Homo sapiens [34] and in the test listed under Homo sapiens [35] was 500 each time.
Turning to `CCOC(=O)C1(CCc2ccccc2)CCN(Cc2ccc(NC(C)=O)cc2)CC1`, the half-maximal effective concentration (EC50) is 8.3 µM in [38], 8.3 µM at Mu-type opioid receptor [40], 0.054 µM on Mu-type opioid receptor [41] and 0.054 µM in test [44]. In addition, the Emax on Mu-type opioid receptor [39] is 1200%; in test [42], 168%; at Mu-type opioid receptor [43] it was 168%; in [45], 1200%.
